Measurements: ChEMBL document CHEMBL4028820, “Novel bioactive molecules from Lentzea violacea strain AS 08 using one strain-many compounds (OSMAC) approach” (Bioorg Med Chem Lett, 2017)
≈ marks a conversion by molar mass, not a printed value.

Experiments:
[1] = test system: Staphylococcus epidermidis; test: Antibacterial activity against Staphylococcus epidermidis ATCC 12228 after 20 to 24 hrs by broth microdilution method; assay type: functional
Enterococcus faecalis = test: Antibacterial activity against Enterococcus faecalis ATCC 51299 after 20 to 24 hrs by broth microdilution method; assay type: functional
Micrococcus luteus = test: Antibacterial activity against Micrococcus luteus ATCC 10240 after 20 to 24 hrs by broth microdilution method; assay type: functional
Klebsiella pneumoniae = test: Antibacterial activity against Klebsiella pneumoniae ATCC BAA-2146 after 20 to 24 hrs by broth microdilution method; assay type: functional
Bacillus subtilis = test: Antibacterial activity against Bacillus subtilis ATCC 11774 after 20 to 24 hrs by broth microdilution method; assay type: functional
Escherichia coli = test: Antibacterial activity against Escherichia coli ATCC 10536 after 20 to 24 hrs by broth microdilution method; assay type: functional
Staphylococcus aureus = test: Antibacterial activity against Staphylococcus aureus ATCC 25923 after 20 to 24 hrs by broth microdilution method; assay type: functional
Pseudomonas aeruginosa = test: Antibacterial activity against Pseudomonas aeruginosa ATCC 10145 after 20 to 24 hrs by broth microdilution method; assay type: functional
HCT-116 = test: Antiproliferative activity against human HCT116 cells after 48 hrs by MTT assay; assay type: functional, cell-based; details: HCT-116, 48 h
T47D = test: Antiproliferative activity against human T47D cells after 48 hrs by MTT assay; assay type: functional, cell-based
HepG2 = test: Antiproliferative activity against human HepG2 cells after 48 hrs by MTT assay; assay type: functional, cell-based; details: HepG2, 48 h
A549 = test: Antiproliferative activity against human A549 cells after 48 hrs by MTT assay; assay type: functional, cell-based; details: A549, 48 h

Compound	MIC [1] [µg/mL]	MIC (Enterococcus faecalis) [µg/mL]	MIC (Micrococcus luteus) [µg/mL]	MIC (Klebsiella pneumoniae) [µg/mL]	MIC (Bacillus subtilis) [µg/mL]	MIC (Escherichia coli) [µg/mL]	MIC (Staphylococcus aureus) [µg/mL]	MIC (Pseudomonas aeruginosa) [µg/mL]	IC50 (HCT-116) [µM]	IC50 (T47D) [µM]	IC50 (HepG2) [µM]	IC50 (A549) [µM]
C[C@H]1COc2c(N3CCN(C)CC3)c(F)cc3c(=O)c(C(=O)O)cn1c23.C[C@H]1COc2c(N3CCN(C)CC3)c(F)cc3c(=O)c(C(=O)O)cn1c23.O [LEVOFLOXACIN]	0.039 to 0.078	0.156	0.078	2.5 to 5	0.39	0.078	0.078 to 0.156	0.312 to 0.625	–	–	–	–
CC1=C2C(O)C(C(C)CO)CCC2(C)C=CC1=O (stereo unspecified)	> 128	128 (≈ 511 µM)	128 (≈ 511 µM)	32 (≈ 128 µM)	128 (≈ 511 µM)	32 (≈ 128 µM)	64 (≈ 256 µM)	64 (≈ 256 µM)	19.2	26.7	38.8	22.3
O=c1[nH]cc(F)c(=O)[nH]1 [FLUOROURACIL]	–	–	–	–	–	–	–	–	26.2	12.1	20.1	15.1
CC(C)CC[C@H](O)[C@@H]1C(=O)OC[C@H]1CO	128 (≈ 592 µM)	128 (≈ 592 µM)	128 (≈ 592 µM)	64 (≈ 296 µM)	128 (≈ 592 µM)	32 (≈ 148 µM)	64 (≈ 296 µM)	32 (≈ 148 µM)	62.3	> 100	> 100	71.5
CCCCOC(=O)c1ccccc1C(=O)OCC(C)C	> 128	> 128	> 128	> 128	> 128	> 128	> 128	> 128	36.1	48.7	53.3	38
NCC[C@H](O)C(=O)N[C@@H]1C[C@H](N)[C@@H](O[C@H]2O[C@H](CN)[C@@H](O)[C@H](O)[C@H]2O)[C@H](O)[C@H]1O[C@H]1O[C@H](CO)[C@@H](O)[C@H](N)[C@H]1O [AMIKACIN]	2.5 (≈ 4.27 µM)	0.39 (≈ 0.666 µM)	0.39 (≈ 0.666 µM)	5 (≈ 8.54 µM)	0.625 (≈ 1.07 µM)	0.312 to 0.625 (≈ 0.533 to 1.07 µM)	2.5 (≈ 4.27 µM)	2.5 (≈ 4.27 µM)	–	–	–	–
